Source: US5137822A, “Transformed yeasts having steroid-hydroxylase activity and process for hydroxylation of steroids using the said transformed yeasts” (Director-General of Agency of Industrial Science & …, priority 1987, dated 1992)
Like-named read-outs stand apart in the source and are kept apart here. Values belong to the molecule of their own block, whether it stands above or below them.

Columns and labels:
[1] = biological target: T1, bovine adrenocortical cytochrome P-45017α (Bos taurus, UniProt P05185); conditions: microsomes, 5 min, pH 7.4
T1 sequence (P05185 1-509): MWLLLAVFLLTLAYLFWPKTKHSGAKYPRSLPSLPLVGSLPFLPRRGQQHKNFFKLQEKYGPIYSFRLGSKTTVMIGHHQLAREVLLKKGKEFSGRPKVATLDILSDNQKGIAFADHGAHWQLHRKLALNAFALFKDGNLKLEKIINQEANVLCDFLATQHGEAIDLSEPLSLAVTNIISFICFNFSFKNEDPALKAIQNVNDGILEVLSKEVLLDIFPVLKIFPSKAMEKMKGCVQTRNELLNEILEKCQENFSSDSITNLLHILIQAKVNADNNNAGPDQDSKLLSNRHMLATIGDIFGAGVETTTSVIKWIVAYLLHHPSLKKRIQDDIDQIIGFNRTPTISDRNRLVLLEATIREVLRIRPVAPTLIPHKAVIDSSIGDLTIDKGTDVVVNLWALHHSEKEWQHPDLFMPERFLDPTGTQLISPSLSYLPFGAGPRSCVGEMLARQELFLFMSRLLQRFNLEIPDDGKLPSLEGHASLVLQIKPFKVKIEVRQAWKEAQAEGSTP
Procedure: After S. cerevisiae AH22(pAα1) was grown to a cell density of 2.0×10^7 cells/ml, the cells were harvested from 1.8 l of the culture broth and suspended in 50 ml of a buffer A (10 mM Tris-HCl (pH 7.5), 2M sorbitol, 0.1 mM DTT and 0.2 mM EDTA). After 20 mg of Zymolyase 100,000 was added to the suspension, the mixture was incubated at 30° C. for 1 hour. The resulting spheroplasts were harvested by centrifugation (5,000 x g for 10 minutes). They were suspended in 100 ml of buffer A and centrifuged. By repeating the centrifugation, the spheroplasts were washed. They were resuspended in 30 ml of a buffer solution (10 mM Tris-HCl (pH 7.5), 0.65M sorbitol and 0.1 mM DTT) and subjected to ultra sonication at 50W for 5 minutes. The mixture was centrifuged at 10,000 x g for 20 minutes, and the supernatant was again centrifuged at 125,000 x g for 70 minutes. The precipitates were suspended in 2.0 ml of 0.1M potassium phosphate buffer (pH 7.4).
A mixture of 3.6 ml of a 100 mM potassium phosphate buffer (pH 7.4) and 100 μl of a 20 mM NADPH aqueous solution was preincubated at 37° C. for 5 minutes. […] Each 1.0 ml of the mixture was sampled at 0, 2 and 10 minutes and centrifugated. After 2.0 ml each of dichloromethane was added, the sample mixtures were vigorously agitated and centrifugated. The dichloromethane layer (1.0 ml) was evaporated to dryness and the residue was treated in the same manner as in Example 6.

[2] = biological target: T1, bovine adrenocortical cytochrome P-45017α; conditions: s. cerevisiae ah22(paα1) culture, 10 µM
Procedure: S. cerevisiae AH22(pAα1) and AH22(pAAH5) were separately grown to each 7×10^6 cells/ml in an SD-synthetic-medium (2.0% glucose, 0.67% yeast nitrogen base without amino acids, and 20 μg/ml histidine). To 5.0 ml each of the medium was added 50 μl of 1 mM progesterone in ethanol solution containing 10 μCi of [^3 H]-progesterone (or 50 μl of 1 mM pregnenolone in ethanol solution containing 10 μCi of [3H]-pregnenolone) and the mixture was cultured while shaking. Each 1.0 ml of the medium was sampled at 0, 2, 5 and 23 hours and centrifugated. After 2.0 ml of dichloromethane was added to 0.8 ml of the supernatant, the mixture was vigorously agitated and centrifugated. The dichloromethane layer (1.0 ml) was evaporated to dryness and the residue was dissolved in 20 μl of ethanol/ethyl acetate (1:1 by volume). Ten μl of the solution was applied to TLC. The TLC was developed with chloroform containing 25% ethyl acetate at room temperature for 50 minutes and radioautographed. The silica gel of the spot on the film was scraped out from the plate and the radio activity of the gel was measured with a liquid scintillation counter.

[3] = biological target: T1, bovine adrenocortical cytochrome P-45017α; experiment: C17-20-lyase activity of P-45017α-producing yeasts against 17-hydroxyprogesterone; assay type: cell-based; set-up: made in house; host or cells: Saccharomyces cerevisiae AH22(pAα1), microsomal fraction

SMILES: CC(=O)[C@H]1CC[C@H]2[C@@H]3CCC4=CC(=O)CC[C@]4(C)[C@H]3CC[C@]12C [progesterone]
added progesterone converted to 17-hydroxyprogesterone ([1]; 2 µM): 88% | added progesterone converted to 17-hydroxyprogesterone ([1]; 10 µM): 49% | added progesterone converted to 17-hydroxyprogesterone ([1]; 50 µM): 17% | conversion of progesterone to 17-hydroxyprogesterone ([2]; 5 h): 87% | conversion of progesterone to 17-hydroxyprogesterone ([2]; 23 h): 97%

SMILES: CC(=O)[C@@]1(O)CC[C@H]2[C@@H]3CCC4=CC(=O)CC[C@]4(C)[C@H]3CC[C@@]21C [17-hydroxyprogesterone]
C17-20-lyase activity against 17-hydroxyprogesterone [3]: almost no C17-20 -lyase activity

conversion of pregnenolone to 17-hydroxypregnenolone ([2]; 2 h): 28%
SMILES: CC(=O)[C@H]1CC[C@H]2[C@@H]3CC=C4C[C@@H](O)CC[C@]4(C)[C@H]3CC[C@]12C [pregnenolone]
